The target of test [1] is T1, Wee1 (Homo sapiens, UniProt P30291). In words: LanthaScreen FRET-based biochemical binding assay for Wee1. Conditions: LanthaScreen Binding activity assay; average of two replicates ± SD. Here is the method:
(§1) LanthaScreen™ assays were conducted for Wee1 in a 10-point dose response as performed in the commercial assay service by Life Technologies™. Z′-LYTE™ assays were conducted for PLK1 as performed in the commercial assay service by Life Technologies™ in a 10-point dose response using Km ATP concentrations.

Test [2] deals with PLK1 (Homo sapiens, UniProt P53350). In words: Z′-LYTE kinase activity assay for PLK1. The test is classed as biochemical. Also on record: purchased Life Technologies (Invitrogen) commercial assay service. Conditions: Km ATP, average of two replicates ± SD. The procedure:
as §1
The selectivity of Wee1 degradation was then assessed by performing multiplexed mass spectrometry (MS)-based proteomics in MOLT4 cells treated with 100 nM of compound 13 for 2 hours (Donovan et al., Elife 7:e38430 (2018)).

Test [3] concerns the target T1, Wee1. In words: Cellular degradation of Wee1 by immunoblot, 6-hour treatment of MOLT4 cells. The class given is cell-based. Also on record: endogenous in cells; host or cells: MOLT4 (wild type; CRBN-/- as control). Conditions: MOLT-4, 1 μM, MOLT4 cells, approximated by immunoblot, read-out: Extent of Degradation of Wee1. Here is the method:
General Protocol: HT-29, MOLT4 wild type (WT) or CRBN^-/- cells were plated in a 6 well plate and treated for 6 hours with the indicated concentrations of the inventive compounds and control. HT-29 cells were cultured in McCoy's Media supplemented with 10% FBS and 1% Penicillin/Streptomycin. MOLT4 WT and CRBN^-/- cells were cultured in Roswell Park Memorial Institute (RPMI) medium supplemented with 10% FBS and 1% Penicillin/Streptomycin. Mycoplasma testing was performed every month and all lines were negative. Immunoblotting: Cells were washed with phosphate-buffered saline (PBS) and then lysed using radioimmunoprecipitation assay (RIPA) buffer supplemented with protease and phosphatase inhibitor cocktail (Roche) on ice for 15 minutes. The lysates were centrifuged at 14,000 rpm for 15 minutes at 4° C. and protein was quantified by bicinchoninic acid (BCA) assay (PierceTM). Primary antibodies used include: Wee1 ([…]) (Cell Signaling Technology®, 13084S), polo-like kinase 1 (PLK1) (Thermo Fisher Scientific, 37-7000), phosphor-cdc2 (Y15) (10A11) (Cell Signaling Technology®, […]), phospho-histone H3 ([…]) (Cell Signaling Technology®, […]), Ikaros ([…]) (Cell Signaling Technology®, 14859S), Aiolos ([…]) (Cell Signaling Technology®, 15103), casein kinase 1 alpha (Abcam®, 108296), β-actin (Cell Signaling Technology®, 8H10D10). FIG. 2A is an immunoblot showing that compound 13 degraded Wee1 after a 6-hour treatment in MOLT4 cells, and induced the downstream changes expected from Wee1 loss-including a decrease in phosphorylated cyclin-dependent kinase 1 (pCDK1) (Y15) and an increase in pH 3. […] Degradation of Wee1 by compound 13 was rescued in MOLT4 CRBN^-/- cells. MOLT4 WT and CRBN^-/- cells were plated in a 6-well plate at 2.25 million cells per well in 3 mL media (RPMI+10% FBS+1% Penn/Strep). After treatment with the indicated concentrations of candidate compounds, cells were incubated for 6 hours at 37° C. 5% CO2. To harvest, the cells were washed 1× with cold PBS, then collected by centrifugation. Cell pellets were lysed in RIPA buffer with protease and phosphatase inhibitors (Roche). Lysates were clarified by centrifugation, and protein concentrations were normalized using a BCA assay (Thermo ScientificTM). The samples were diluted with 4×LDS+10% β-mercaptoethanol, and were boiled at 95° C. for 5 minutes. Proteins of interest were then assessed by western blotting. […] The experimental protocol was the same as in Example 28.

For test [4], the target named is T1, Wee1. In words: Wee1 degradation immunoblot in MOLT4 cells, 5-hr dose response and time course. The class given is cell-based. Set-up: endogenous in cells; host or cells: MOLT4 (wild type; CRBN-/- as control). Conditions: MOLT4 cells. Here is the method: Whole cell lysates for immunoblotting were prepared by pelleting cells from each cell line at 4° C. (300 g) for 5 minutes. The resulting cell pellets were washed 1× with ice-cold PBS and then resuspended in RIPA lysis buffer (Sigma, cat #R0278) supplemented with protease and phosphatase inhibitor tablets (Roche cat #4906845001). Lysates were clarified at 14,000 rpm for 15 minutes at 4° C. prior to quantification by BCA assay (Pierce™, cat #23225). Whole cell lysates were loaded into Bolt 4-12% Bis-Tris Gels (Thermo Fisher, cat #NW04120BOX) and separated by electrophoreses at 95 V for 1.5 hours. The gels were transferred to a nitrocellulose membrane using the iBlot® Gel Transfer at P3 for 7 minutes (Thermo Fisher, cat #IB23001) and then blocked for 1 hour at room temperature in Odyssey® blocking buffer (LICOR® Biosciences, cat #927-50010). Membranes were probed using antibodies against the relevant proteins at 4° C. overnight in 20% Odyssey® Blocking Buffer in 1×TBST. Membranes were then washed three times with 1×TBST (at least 5 minutes per wash) followed by incubation with the IRDye® goat anti-mouse (LICOR®, cat #926-32210) or goat anti-rabbit (LICOR®, cat #926-32211) secondary antibody (diluted 1:10,000) in 20% Odyssey® Blocking Buffer in 1×TBST for 1 hour at room temperature. After three washes with 1×TBST (at least 5 minutes per wash), the immunoblots were visualized using the ODYSSEY® Infrared Imaging System (LICOR®).
MOLT4 cells were plated at 1.5 million cells per well in a 6-well plate, with 3 mL of media per well. Cells were then immediately treated with the indicated concentration of the indicated compound and incubated for the indicated amount of time. Cells were collected by transferring each well to a 15 mL conical, centrifuging (1000 rpm for 3 min), then washing the cell pellet 2× with cold PBS. Each cell pellet was then lysed in 100 μL of RIPA lysis buffer (+protease/phosphatase inhibitors). Samples were normalized and prepped in 4×LDS+10% β-mercaptoethanol and boiled for 5 min at 95° C. Lysates were probed for specified proteins by western blotting using the Bolt® system (Life Technologies™)
To confirm that compound 13-mediated Wee1 degradation is CRBN dependent (FIG. 1D), Wee1 degradation profiles in parental versus CRBN^−/− MOLT4 cells were compared. In parental MOLT4 cells, compound 13 induced potent Wee1 degradation after 5 hours, with maximal degradation observed at 100 nM and a “hook effect” apparent at the top concentration of 10 μM, where compound 13:CRBN and compound 13-Wee1 binary complexes inhibit the formation of a productive ternary complex (Toure and Crews, Angew. Chem. 55:1966-1973 (2016)).
To evaluate the kinetics of Wee1 degradation, a time course study was performed in MOLT4 cells using 100 nM compound 13. Degradation occurred rapidly, with over 50% degradation achieved within 30 min, and complete degradation reached by 3 hr (FIG. 4C).

Test [5] has as its system MOLT4 cells. In words: Cell cycle analysis by propidium iodide staining. Conditions: 1 μM, 24 hours, MOLT4 cells. The test is classed as cell-based. Here is the method: MOLT4 cells were plated at 1.5 million cells per well in a 6-well plate, with 3 mL of media per well. Immediately after plating, cells were treated with the indicated concentrations of the indicated compound. At the indicated time points, cells were collected by transferring each well to a 15 mL conical, centrifuging (1000 rpm for 3 min), and then washing the cell pellet 3× with cold PBS. Cell pellets were then fixed with 1 mL cold 80% ethanol in PBS at 4° C. overnight. The cell pellets were then washed by adding 1 mL of PBS and then centrifuging (1500 rpm for 5 minutes), followed by aspiration of the PBS/ethanol mix. Cells were resuspended in cell cycle staining solution (100 μg/mL of RNAse A (Roche, 10109169001) and 50 μg/mL propidium iodide (Life Technologies™, P1304MP), diluted in PBS, and incubated for 10 minutes at room temperature. Cell cycle data was acquired by flow cytometry on a Guava® easyCyte™ flow cytometer (Millipore™) using the InCyte™ software. Data was analyzed using FlowJo®. N=3 biological replicates were used for each treatment condition.

The subject of test [6] is MOLT4 cells (parental, wild type). In words: CellTiter-Glo cell viability, 72 hours. The test is classed as cell-based. Conditions: 72-hr. Here is the method:
The indicated cell lines were plated in flat bottom 384-well plates (Corning® cat #3570). MOLT4 cells were plated at a density of 3,000 cells per well in 50 μL media, while OVCAR8, COV362, and Kuramochi cells were plated at a density of 750 cells per well in 50 μL media. Cells were treated the next day (except for MOLT4 cells, which were treated the same day as plating) with 0.1 μL of the indicated compounds in a four-fold dilution series using the Janus pinner. Cells were incubated with compounds for 72 hours at 37° C. 5% CO2. Anti-proliferative effects were then assessed by CellTiter-Glo® Luminescent Cell Viability Assay (Promega™ cat #G7570) according to the manufacturer's standards, measuring luminescence using an EnVision® plate-reader. IC50 values were determined using a non-linear regression curve fit in GraphPad Prism 8. N=4 biological replicates were used for each treatment condition.
MOLT4 cells were plated in a 384-well plate at 5,000 cells per well in 50 μL media (RPMI+10% FBS+1% Penn/Strep) and treated with 0.1 μL of the candidate compounds in four-fold dilution series using the Janus pinner. Cells were incubated with compounds for 72 hours at 37° C. 5% CO2. Anti-proliferative effects of these compounds were assessed 72 hours after compound addition using CellTiter-Glo® (Promega, cat #G7571). All proliferation assays were performed in biological quadruplicate. […] Effects upon cell viability for compound 13 in the MOLT4 WT cells are therefore likely driven in part by Wee1 inhibition, and in part by CRBN-mediated Wee1 degradation. […] Degradation of Wee1 with compound 21 was mediated by VHL.

Where “and” joins values, the source holds several entries; their conditions need not be identical. Equal entries are not always repeated.

T1 sequence (P30291 whole entry): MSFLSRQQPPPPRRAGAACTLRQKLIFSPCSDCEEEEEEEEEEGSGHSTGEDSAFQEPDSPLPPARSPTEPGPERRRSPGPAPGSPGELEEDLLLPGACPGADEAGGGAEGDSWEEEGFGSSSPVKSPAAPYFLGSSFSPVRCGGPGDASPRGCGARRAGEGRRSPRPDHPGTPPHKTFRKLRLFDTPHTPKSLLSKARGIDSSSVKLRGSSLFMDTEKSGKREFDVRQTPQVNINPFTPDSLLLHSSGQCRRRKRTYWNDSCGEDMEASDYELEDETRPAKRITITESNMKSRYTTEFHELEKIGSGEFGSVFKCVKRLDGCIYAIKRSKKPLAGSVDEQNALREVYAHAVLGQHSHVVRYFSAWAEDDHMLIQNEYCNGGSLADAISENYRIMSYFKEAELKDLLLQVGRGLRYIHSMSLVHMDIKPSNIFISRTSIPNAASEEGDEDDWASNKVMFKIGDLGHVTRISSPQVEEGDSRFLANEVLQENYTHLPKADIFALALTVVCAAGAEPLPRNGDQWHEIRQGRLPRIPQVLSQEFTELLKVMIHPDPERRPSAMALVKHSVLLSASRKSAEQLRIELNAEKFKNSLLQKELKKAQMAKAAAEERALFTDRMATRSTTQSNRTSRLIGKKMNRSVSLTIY
Chain of PLK1 (P53350 whole entry): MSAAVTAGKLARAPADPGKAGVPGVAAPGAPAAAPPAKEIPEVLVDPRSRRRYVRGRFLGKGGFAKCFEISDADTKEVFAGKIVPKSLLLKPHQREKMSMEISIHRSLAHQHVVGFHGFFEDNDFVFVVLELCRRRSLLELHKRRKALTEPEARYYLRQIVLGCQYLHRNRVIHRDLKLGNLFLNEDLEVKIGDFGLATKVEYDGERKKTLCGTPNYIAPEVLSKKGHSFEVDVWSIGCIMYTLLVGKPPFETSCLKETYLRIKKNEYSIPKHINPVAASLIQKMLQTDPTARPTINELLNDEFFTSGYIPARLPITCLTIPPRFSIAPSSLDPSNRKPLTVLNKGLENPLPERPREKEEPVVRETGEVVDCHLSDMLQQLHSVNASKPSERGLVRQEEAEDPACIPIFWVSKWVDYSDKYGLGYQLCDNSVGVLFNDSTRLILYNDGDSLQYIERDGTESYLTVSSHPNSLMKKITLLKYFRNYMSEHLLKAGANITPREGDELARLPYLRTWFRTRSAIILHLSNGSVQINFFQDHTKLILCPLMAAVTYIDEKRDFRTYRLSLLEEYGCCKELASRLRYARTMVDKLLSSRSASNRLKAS

As for `C=CCn1c(=O)c2cnc(Nc3ccc(N4CCN(CCCNC(=O)CCOCCOCCNc5cccc6c5C(=O)N(C5CCC(=O)NC5=O)C6=O)CC4)cc3)nc2n1-c1cccc(C(C)(C)O)n1` (centres unmarked) [Compound 7, N-(3-(4-(4-((2-allyl-1-(6-(2-hydroxypropan-2-yl)pyridin-2-yl)-3-oxo-2,3-dihydro-1H-pyrazolo[3,4-d]pyrimidin-6-yl)amino)phenyl)piperazin-1-yl)propyl)-3-(2-(2-((2-(2,6-dioxopiperidin-3-yl)-1,3-dioxoisoindolin-4-yl)amino)ethoxy)ethoxy)propanamide], the IC50 is 1 to 10 nM and 7.28 nM in test [1]; 118 ± 6 nM in test [2]. In addition, the percent Wee1 degradation at 1 µM in test [3] is more than 50%. For the same compound, the “Concentration required to achieve maximal Wee1 degradation” value in test [4] (5-hr treatment) was 1 µM.
For `C=CCn1c(=O)c2cnc(Nc3ccc(N4CCN(CCCCCCNc5cccc6c5C(=O)N(C5CCC(=O)NC5=O)C6=O)CC4)cc3)nc2n1-c1cccc(C(C)(C)O)n1` (centres unmarked) [Compound 11, 4-((6-(4-(4-((2-allyl-1-(6-(2-hydroxypropan-2-yl)pyridin-2-yl)-3-oxo-2,3-dihydro-1H-pyrazolo[3,4-d]pyrimidin-6-yl)amino)phenyl)piperazin-1-yl)hexyl)amino)-2-(2,6-dioxopiperidin-3-yl)isoindoline-1,3-dione], the IC50 in test [1] turned out to be 4.46 ± 0.95 nM; in test [2], 23.6 ± 4 nM. In addition, in test [3], the percent Wee1 degradation at 1 µM was 25 to 50%. In test [4] (5-hr exposure, 100 nM-10 μM), the Wee1 degradation entry is on record as “degraded Wee1”.
`C=CCn1c(=O)c2cnc(Nc3ccc(N4CCN(CCOCCOCCOCCNc5cccc6c5C(=O)N(C5CCC(=O)NC5=O)C6=O)CC4)cc3)nc2n1-c1cccc(C(C)(C)O)n1` (centres unmarked) [Compound 12, 4-((2-(2-(2-(2-(4-(4-((2-allyl-1-(6-(2-hydroxypropan-2-yl)pyridin-2-yl)-3-oxo-2,3-dihydro-1H-pyrazolo[3,4-d]pyrimidin-6-yl)amino)phenyl)piperazin-1-yl)ethoxy)ethoxy)ethoxy)ethyl)amino)-2-(2,6-dioxopiperidin-3-yl)isoindoline-1,3-dione]: the IC50 in test [1] was 1 to 10 nM and 3.18 nM; in test [2], 285 ± 14 nM. Besides, the percent Wee1 degradation at 1 µM in test [3] is more than 50%. Further, in test [4] (5-hr treatment), the “Concentration giving maximal (sufficient) Wee1 degradation” value is 100 nM.
`Nc1cccc2c1CN(C1CCC(=O)NC1=O)C2=O` (centres unmarked) [Lenalidomide, reference compound]: the “Effect on the cell cycle” value in test [5] was “did not induce any significant changes”. Further, the Antiproliferative activity entry in test [6] is “no detectable antiproliferative activity”.

Values taken from patent US12318452B2, “Degraders of WEE1 kinase” (DANA-FARBER CANCER INSTITUTE, INC., priority 2018, dated 2025).
